Data: patent US20260116845A1, “LIPIDS AND COMPOSITIONS THEREOF” (Kernal Biologics, Inc., priority 2023, published 2026)

What was measured:
[1] = Formulation of mRNA encapsulated lipid nanoparticles (microfluidic mixing, ribogreen assay); type: physicochemical; settings: Table 4
Experimental: mRNA encapsulated lipid nanoparticles (mRNA LNPs) were formulated using microfluidic mixing with a PNI Ignite instrument. Briefly, lipids (ionizable: structural: helper: PEG) were dissolved in ethanol and mixed with and aqueous solution of mRNA. These mRNA-loaded dispersions were then neutralized via a buffer exchange with a pre-determined buffer overnight. Afterwards, formed LNPs were concentrated with Amicon filter centrifugation, filtered, concentration of mRNA determined through a ribogreen assay, and frozen at −80° C. until use.

Liver = experiment: Ex-vivo luminescence signal from liver after IV Fluc mRNA LNPs in CD1 mice (IVIS); settings: tail vein 1.0 mg/kg Day 0 and Day 2, imaging 18 hours after second dose, Table 4
B16F10 Cell Line = experiment: Transfection of B16F10 Cell Line with FLuc mRNA LNPs (ONE-Glo EX luciferase signal); type: cell-based; settings: 200 ng Fluc mRNA-LNP, 24 hours; Table 4
Procedure, shortened: (§1)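 LNPs (ionizable/structural/helper/PEG lipids, microfluidic mixing, mRNA quantified by RiboGreen) pre-incubated 30 min with mouse serum, then added at 200 ng mRNA per well in Opti-MEM to B16F10, MC38.K (5,000 cells/well) or AML12 (20,000 cells/well). Luminescence read after 24 h transfection.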

Balb/c mice = experiment: Multi-dose tolerability screening of NT-beta-Actin mRNA LNPs in naive Balb/c mice; type: in vivo; settings: 1.0 mg/kg IV twice a week for four weeks
Experimental: Multi-dose Tolerability Screening of Compound 23-LNPs: Compound 23 and Benchmark 1 were formulated using a standard process method and injected (1.0 mg/kg, IV) twice a week for four weeks into naïve Balb/c mice. NT-beta-Actin mRNA LNPs were administered IV to Balb/c mice via the tail vein for a total of eight doses (twice a week for four consecutive weeks) at a concentration of 1.0 mg/kg. Bodyweights were monitored and blood was collected pre-dose, 24 hours post first dose, 24 hours post-fourth dose, and 24 hours post-eighth dose and analyzed for cytokines, blood chemistry, and liver/spleen weights. Data analysis was performed in Graphpad Prism 10. Values are reported as mean+/−standard deviation, unless specified otherwise. […] N=6 per group.

AML12 Cell Line = experiment: Transfection of AML12 Cell Line with FLuc mRNA LNPs (ONE-Glo EX luciferase signal); type: cell-based; settings: 200 ng Fluc mRNA-LNP, 24 hours; Table 4
Procedure, shortened: as §1

C57BL/6 mice = experiment: Multi-dose tolerability screening of NT-beta-Actin mRNA LNPs in MC38.K-inoculated C57BL/6 mice; type: in vivo; settings: C57BL/6 mice with MC38.K, 1.0 mg/kg IV twice a week for two weeks
Experimental: NT-beta-Actin mRNA LNPs with different ionizable lipids were administered IV to C57BL/6 mice, inoculated with MC38.K cells, via the tail vein for a total of four doses (twice a week for two consecutive weeks) at a concentration of 1.0 mg/kg. Bodyweights were monitored and blood was collected pre-dose, 24 hours post first dose, 24 hours post fourth dose, and analyzed for cytokines, blood chemistry, and liver/spleen weights. Compounds 23, 99 and 101 were formulated using a peripheral process method. C57BL/6 mice were inoculated with MC38.K cells. Once tumors had grown, 1.0 mg/kg (Beta-Actin mRNA) of each LNP was intravenously administered twice a week for two weeks. […] N=6 per group for bodyweights, N=3 for blood analysis. Mean+/−SD.

MC38.K tumors = experiment: Intratumor delivery of Firefly Luciferase mRNA-LNPs in MC38.K tumor-bearing mice (IVIS); type: in vivo; settings: Albino B6 mice, MC38.K tumors 250 mm^3, 1.0 mg/kg intratumoral, IVIS 18 hours post dose
Experimental: Intratumor Delivery of Compound 23 versus Benchmark 1. Albino B6 mice were inoculated with MC38.K cancer cells. Once tumors reached 250 mm^3, 1.0 mg/kg of Firefly Luciferase mRNA-LNPs containing either Benchmark 1 or Compound 23 as the ionizable lipid component was dosed intratumorally. Takedown and IVIS imaging were performed 18 hours post dose. N=5 mice per group.

MC38.K Cell Line = experiment: Transfection of MC38.K Cell Line with FLuc mRNA LNPs (ONE-Glo EX luciferase signal); type: cell-based; settings: 200 ng Fluc mRNA-LNP, 24 hours; Table 4
Procedure, shortened: as §1

[2] = system: Macaca fascicularis Cynomolgus monkeys; experiment: NHP study 2: weekly IV infusion of hEPO mRNA-LNP; type: in vivo; settings: weekly IV infusion 0.1 mg/kg hEPO mRNA-LNP
Experimental: Male cynomolgus monkeys (Biomere, Richmond CA) were 4-6 years old and weighed 4-7 kg at the initiation of dosing. Monkeys were housed in stainless steel cages and provided with Monkey Diet 5038 daily except during times of fasting. Filtered tap water was provided to the animals ad libitum including during fasting times. Temperature of the animal room was kept between 64-84° F., humidity of 30-70%, and with a light/dark cycle of 12 hours except during designated procedures. Pre-dosing treatment with Famotidine (0.5 mg/kg), Diphenhydramine (5 mg/kg), and Dexamethasone (1 mg/kg) was performed prior to dosing of LNPs. Animals received weekly intravenous IV infusions of human erythropoietin encapsulated mRNA lipid nanoparticles (Compound 23, hEPO mRNA-LNP, 0.1 mg/kg). A total of four doses were administered. Prior and after dosing, body weights and temperature were monitored and blood samples were collected pre-dose, 2, 6, 24, 48, and 168 hours. All procedures were conducted according to the approved IACUC guidelines. The results are shown in FIG. 14, FIG. 15, FIG. 16, and FIG. 17.

| Structure (SMILES) | mRNA encapsulation in LNP [1] | Total Liver Tissue Luciferin Signal (Photons/s) Ex-vivo - CD1 (Liver) [Photons/s] | Total Luciferin Signal (RLU) In Vitro - B16F10 (B16F10 Cell Line) [RLU] | bodyweights or survival rate (Balb/c mice; among Compound 23, Benchmark 1 and delivery buffer) | tolerability (Balb/c mice; versus delivery buffer) | Total Luciferin Signal (RLU) In Vitro - AML12 (AML12 Cell Line) [RLU] | survival (C57BL/6 mice) | intratumor delivery performance (MC38.K tumors) | Total Luciferin Signal (RLU) In Vitro - MC38.K (MC38.K Cell Line) [RLU] | tolerability (body weight, temperature, liver blood chemistry) ([2]; 4 doses) | generation of red blood cells (hematocrit, absolute reticulocyte counts) ([2]; four doses) | hEPO protein expression over repeated doses ([2]; four doses) | clearance of the lipid from blood / serum ([2]; repeated doses) |
| --- | --- | --- | --- | --- | --- | --- | --- | --- | --- | --- | --- | --- | --- |
| CCCCCCCCCOC(=O)CCCCCCCN(CCF)CCCCCCCC(=O)OC(CCCCCCCC)CCCCCCCC [Compound 43] | Inherent Lipid Properties Result in No mRNA Encapsulation |  |  |  |  |  |  |  |  |  |  |  |  |
| CCCCCCCCCOC(=O)CCCCCCCN(CCO)CCCCCCCC(=O)OC(CCCCCCCC)CCCCCCCCF (stereo not shown) [Compound 23] |  | 5.15E+09 | 9.60E+05 | Comparable bodyweights or survival rate | comparable tolerability | 4.66E+05 | all mice survived | comparable delivery performance as that of Benchmark 1 | 2.00E+06 | reasonable tolerability | consistent generation of red blood cells over four repeated doses | consistent protein expression over repeated doses | cleared from the blood without any observation of accumulation over repeated doses |
